From paper PMC11355796, “Blue and Yellow Laccases from Alternaria sp. Strain HU: Characterization and Immobilization on Magnetic Nanoparticles” (Journal of Fungi, 2024) come the findings set out here.

Structures can show the parent of a compound that is named as a salt.

Test [1] relates to T1, LacHU1.
T1 construct: native secreted enzyme purified from culture liquid; signal peptide of 18 residues
The experiment in a line: initial-rate oxidation assay, Michaelis-Menten fit. Type of test: biochemical, Alternaria sp. HU. Particulars: free enzyme; apparent constant; read-out: Kinetic Parameters / KM, μM / LacHU1. From the text: initial-rate oxidation assay, Michaelis-Menten fit on LacHU1

The subject of test [2] is T2, LacHU2.
T2 construct: native secreted enzyme purified from culture liquid; signal peptide of 18 residues
The experiment in a line: initial-rate oxidation assay, Michaelis-Menten fit. Type of test: biochemical, Alternaria sp. HU. As to conditions: free enzyme; apparent constant; read-out: Kinetic Parameters / KM, μM / LacHU2. From the text:
initial-rate oxidation assay, Michaelis-Menten fit on LacHU2

Turning to `COc1cccc(OC)c1O` [2,6-DMP], the Km in test [1] was found to be 10 ± 2 µM; in test [2] it was 4300 µM.
In the case of `OCCN1c2ccccc2Oc2ccccc21` [2-(10H-phenoxazin-10-yl)ethanol], the Km in test [1] is 40 ± 10 µM; in test [2], 200 ± 50 µM.
On the same counts, the results for `CCn1c(=NN=c2sc3cc(S(=O)(=O)O)ccc3n2CC)sc2cc(S(=O)(=O)O)ccc21` [ABTS, 2,2’-azino-bis(3-ethylbenzothiazoline-6-sulfonic acid) diammonium salt] are 60 ± 10 µM and 5600 µM.
As to `O=C(O)/C=C/c1ccc(O)c(O)c1` [Caffeic acid], the Km in test [1] was found to be 50 ± 3 µM; in test [2] it was 400 ± 30 µM.
Consider `Oc1ccccc1O` [Catechol], for which the Km in test [2] was 20000 µM.
For `O=C(/C=C/c1ccc(O)c(O)c1)O[C@@H]1C[C@](O)(C(=O)O)C[C@@H](O)[C@H]1O` [Chlorogenic acid], in test [2], the Km stood at 90 ± 40 µM.
`COc1cc(/C=C/C(=O)O)ccc1O` [Ferulic acid]: the Km in test [1] came to 50 ± 4 µM; in test [2], 230 ± 30 µM.
On to `O=c1c(O)c(-c2ccc(O)c(O)c2)oc2cc(O)ccc12` [Fisetin], for which the Km in test [1] turned out to be 15 ± 1 µM.
`Oc1ccc(O)cc1` [Hydroquinone]: the Km in test [2] came to 13000 µM.
`O=c1c(O)c(-c2cc(O)c(O)c(O)c2)oc2cc(O)cc(O)c12` [Myricetin]: in test [1], the Km came to 2 ± 0.3 µM.
For the molecule `CN(C)CCCN1c2ccccc2Sc2ccccc21` [Promazine hydrochloride], the Km in test [2] came out at 2600 µM.
In the case of `O=c1c(O)c(-c2ccc(O)c(O)c2)oc2cc(O)cc(O)c12` [Quercetin], in test [1], the Km was 2 ± 0.4 µM.
Same read-out and setting: for `COc1cc(C=NN=Cc2cc(OC)c(O)c(OC)c2)cc(OC)c1O` [Syringaldazine] the value was 1 ± 0.1 µM; for `COc1cc(C(=O)O)cc(OC)c1O` [Syringic acid], 40 ± 0.5 µM.
With `Nc1ccc(N)cc1` [p-Phenylenediamine], the Km in test [2] was found to be 3600 µM.
